Measurements reported in patent US20130143739A1, “HERBICIDAL COMPOSITION CONTAINING 4-amino-3-chloro-6-(4-chloro-2-fluoro-3-methoxyphenyl) pyridine-2-carboxylic acid or derivative thereof AND FLUROXYPYR or derivatives thereof” (DOW AGROSCIENCES LLC, priority 2011, published 2013).
Values joined by “and” are separate entries in the source; they are usually repeats but may differ in a detail not shown here. Equal entries are not always repeated.

Legend:
Format in all cases: in vivo
[1] = test system: MEOPA (Melochia parviflora); assay: Postemergence field trial, weed control in range and pasture; conditions: for Obs, observed percent weed control: 14 DAA, Table 1; for % Visual Injury, Obs: 63 DAA
Experimental: (§1) Evaluation of Postemergence Herbicidal Activity of Mixtures in Cereal crops and Range and Pasture.
(§2) Field trials were conducted in cereal crops (winter wheat (TRZAW), spring wheat (TRZAS) and spring barley (HORVU) in Canada, France, Germany, Spain, Denmark, United Kingdom and Belgium, and pasture trials were conducted in Colombia using standard herbicide small plot research methodology. Plot size was typical for small plot research, varying from 1.4 to 2 meters (m) wide by 3 to 10 m long. There were 2-4 replicates per treatment. The soil type ranged from coarse, to medium or heavy in terms of soil texture. Cereal crops were planted, grown and maintained as commercial production fields. Perennial pastures were natural plant and weed infestations as per normal local cultural practices. The cereal and pasture crops were grown using normal cultural practices for fertilization and maintenance to ensure good growth of the crop/pastures and the weeds.
(§3) Treatments were applied by backpack or bicycle sprayers using either compressed air, nitrogen, or carbon dioxide (CO2), at spray pressures from 200 to 300 Kpa. Spray tips were typically Flat Fan Teejet nozzles, such as TJ8003. Spray volumes varied from 200 to 400 liters per hectare (L/ha). MEOPA plant size at application varied from 70 to 80 centimeters (cm) tall active growth at flowering stage. All cereal weeds tested varied from 2 leaf to 8 leaf and often branched or tittered.
(§4) For each treatment, the appropriate formulated product amount to treat the plot area, to achieve the desired application rate, based on unit area of application (hectare), was calculated, measured, and mixed in water prior to applying with the backpack or bicycle sprayer. Treatments were rated as compared to the untreated control plots. The commercial fluroxypyr formulations used were Starane® Ultra (333 gr ae/liter) or Starane® 2 (200 gr ae/liter). Compound I was formulated as a 20% weight acid equivalent wettable granule (WG) or as a 7.5 gr ae/liter EC of the corresponding methyl ester. All Compound (I) treatments were tank mixed with an adjuvant. Compound (I) treatments in the cereal trials contained the safener cloquintocet-mexyl.
(§5) Colby's equation was used to determine the herbicidal effects expected from the mixtures (Colby, S. R. Calculation of the synergistic and antagonistic response of herbicide combinations. Weeds 1967, 15, 20-22.).
(§6) The following equation was used to calculate the expected activity of mixtures containing two active ingredients, A and B:
(§7) A=observed efficacy of active ingredient A at the same concentration as used in the mixture.
(§8) B=observed efficacy of active ingredient B at the same concentration as used in the mixture.

[2] = test system: CASOB (Cassia obtusifolia); assay: as above; conditions: 29-42 DAA
Experimental: as §1, §2, §3, §4, §5, §6, §7, §8

STEME (Stellaria media) = assay: Postemergence field trial, weed control in cereal crops
Experimental: as §1, §2, §3, §4, §5, §6, §7, §8

[3] = test system: CHEAL (Chenopodium album); assay: as above; conditions: 14 DAA
Experimental: as §1, §2, §3, §4, §5, §6, §7, §8

STAAN (Stachys annua) = assay: as above; conditions: 14 DAA
Experimental: as §1, §2, §3, §4, §5, §6, §7, §8

[4] = test system: AMARE (Amaranthus retroflexus); assay: as above; conditions: 56 DAA
Experimental: as §1, §2, §3, §4, §5, §6, §7, §8

[5] = test system: VERHE (Veronica hederifolia); assay: as above; conditions: 49 DAA
Experimental: as §1, §2, §3, §4, §5, §6, §7, §8

[6] = test system: POLAV (Polygonum aviculare); assay: as above; conditions: 13-27 DAA
Experimental: as §1, §2, §3, §4, §5, §6, §7, §8

CIRAR (Cirsium arvense) = assay: as above; conditions: 14 DAA
Experimental: as §1, §2, §3, §4, §5, §6, §7, §8

LAMPU (Lamium purpureum) = assay: as above; conditions: 28 DAA
Experimental: as §1, §2, §3, §4, §5, §6, §7, §8

[7] = test system: VEROF (Veronica officinalis); assay: as above; conditions: 28 DAA
Experimental: as §1, §2, §3, §4, §5, §6, §7, §8

SINAR (Sinapis arvensis) = assay: as above; conditions: 58 DAA
Experimental: as §1, §2, §3, §4, §5, §6, §7, §8

VIOAR (Viola arvensis) = assay: as above; conditions: 14 DAA
Experimental: as §1, §2, §3, §4, §5, §6, §7, §8

[8] = test system: MATCH (Matricaria chamomilla); assay: as above
Experimental: as §1, §2, §3, §4, §5, §6, §7, §8

PAPRH (Papaver rhoeas) = assay: as above; conditions: 28 DAA
Experimental: as §1, §2, §3, §4, §5, §6, §7, §8

[9] = fluroxypyr MHE 120 g ae/ha alone
[10] = fluroxypyr MHE 150 g ae/ha alone
[11] = fluroxypyr MHE 77 g ae/ha alone
[12] = fluroxypyr MHE 140 g ae/ha alone

`CCCCCCC(C)OC(=O)COc1nc(F)c(Cl)c(N)c1Cl` (centres unmarked) [Fluroxypyr (MHE), Fluroxypyr Methylheptyl Ester, reference compound] was tested, and the “Obs, observed percent weed control” value [1, 9] was 3.5%, the “% Visual Injury, Obs” value [1, 9] was 3% and 8% and the “% Visual Injury, Obs” value [2, 9] was 18%. The “% Visual Injury, Obs” value (STEME (Stellaria media); 28 DAA, fluroxypyr MHE 200 g ae/ha alone) was 27%, the “% Visual Injury, Obs” value (STEME (Stellaria media); 30 DAA, fluroxypyr MHE 80 g ae/ha alone) was 81% and the “% Visual Injury, Obs” value (STEME (Stellaria media); 76 DAA, fluroxypyr MHE 110 g ae/ha alone, Table 5) was 67%. For the same compound, the “% Visual Injury, Obs” value (STEME (Stellaria media); 76 DAA, fluroxypyr MHE 140 g ae/ha alone, Table 3) was 77%, the “% Visual Injury, Obs” value [3, 10] was 10% and the “% Visual Injury, Obs” value (STAAN (Stachys annua); [10]) was 30%. The “% Visual Injury, Obs” value [4, 11] was 20%, the “% Visual Injury, Obs” value ([5]; fluroxypyr MHE 110 g ae/ha alone) was 42% and the “% Visual Injury, Obs” value [6, 11] was 25%. For the same compound, the “% Visual Injury, Obs” value ([6]; fluroxypyr MHE 80 g ae/ha alone) was 61%, the “% Visual Injury, Obs” value (CIRAR (Cirsium arvense); [10]) was 10% and the “% Visual Injury, Obs” value (LAMPU (Lamium purpureum); fluroxypyr MHE 50 g ae/ha alone) was 4%. For the same compound, the “% Visual Injury, Obs” value [7, 12] was 0%, the “% Visual Injury, Obs” value (SINAR (Sinapis arvensis); [12]) was 13% and the “% Visual Injury, Obs” value (VIOAR (Viola arvensis); [12]) was 50%. The “% Visual Injury, Obs” value ([8]; 27 DAA, fluroxypyr MHE 200 g ae/ha alone) was 47%, the “% Visual Injury, Obs” value ([8]; 54 DAA, fluroxypyr MHE 150 g ae/ha alone) was 0% and the “% Visual Injury, Obs” value (PAPRH (Papaver rhoeas); [12]) was 5%.

`COC(=O)c1nc(-c2ccc(Cl)c(OC)c2F)cc(N)c1Cl` [XDE-729 (Methyl Ester), halauxifen-methyl] was tested, and the “Obs, observed percent weed control” value ([1]; XDE-729 methyl ester 17.5 g ae/ha alone) was 48.5%, the “Obs, observed percent weed control” value ([1]; XDE-729 methyl ester 35 g ae/ha alone) was 63.1% and the “% Visual Injury, Obs” value ([1]; XDE-729 Me 18 g ae/ha alone) was 25%. The “% Visual Injury, Obs” value ([1]; XDE-729 Me 35 g ae/ha alone) was 42%, the “% Visual Injury, Obs” value ([2]; XDE-729 Me 18 g ae/ha alone) was 6% and the “% Visual Injury, Obs” value ([2]; XDE-729 Me 35 g ae/ha alone) was 16%. For the same compound, the “% Visual Injury, Obs” value (STEME (Stellaria media); 30 DAA, XDE-729 Me 2 g ae/ha alone) was 58%, the “% Visual Injury, Obs” value (STEME (Stellaria media); 76 DAA, XDE-729 Me 4.5 g ae/ha alone, Table 3) was 19% and the “% Visual Injury, Obs” value (STEME (Stellaria media); 76 DAA, XDE-729 Me 4.5 g ae/ha alone, Table 5) was 22%. The “% Visual Injury, Obs” value (STEME (Stellaria media); 76 DAA, XDE-729 Me 6 g ae/ha alone, Table 3) was 29%, the “% Visual Injury, Obs” value (STEME (Stellaria media); 76 DAA, XDE-729 Me 6 g ae/ha alone, Table 5) was 38% and the “% Visual Injury, Obs” value ([4]; XDE-729 Me 5 g ae/ha alone) was 50%. For the same compound, the “% Visual Injury, Obs” value ([5]; XDE-729 Me 6 g ae/ha alone) was 23%, the “% Visual Injury, Obs” value ([6]; XDE-729 Me 2 g ae/ha alone) was 0% and the “% Visual Injury, Obs” value ([6]; XDE-729 Me 5 g ae/ha alone) was 53%. The “% Visual Injury, Obs” value (LAMPU (Lamium purpureum); XDE-729 Me 2 g ae/ha alone) was 73%, the “% Visual Injury, Obs” value ([7]; XDE-729 Me 6 g ae/ha alone) was 0% and the “% Visual Injury, Obs” value (SINAR (Sinapis arvensis); XDE-729 Me 6 g ae/ha alone) was 0%. For the same compound, the “% Visual Injury, Obs” value (VIOAR (Viola arvensis); XDE-729 Me 6 g ae/ha alone) was 10%, the “% Visual Injury, Obs” value ([8]; 54 DAA, XDE-729 Me 6 g ae/ha alone) was 0% and the “% Visual Injury, Obs” value (PAPRH (Papaver rhoeas); XDE-729 Me 6 g ae/ha alone) was 54%.

`COc1c(Cl)ccc(-c2cc(N)c(Cl)c(C(=O)O)n2)c1F` [XDE-729 (TEA)] was tested, and the “% Visual Injury, Obs” value (STEME (Stellaria media); 28 DAA, XDE-729 TEA 35 g ae/ha alone) was 10%, the “% Visual Injury, Obs” value ([3]; XDE-729 TEA 8.8 g ae/ha alone) was 83% and the “% Visual Injury, Obs” value (STAAN (Stachys annua); XDE-729 TEA 8.8 g ae/ha alone) was 64%. The “% Visual Injury, Obs” value (CIRAR (Cirsium arvense); XDE-729 TEA 8.8 g ae/ha alone) was 64% and the “% Visual Injury, Obs” value ([8]; 27 DAA, XDE-729 TEA 35 g ae/ha alone) was 8%.
